Reference: ChEMBL document CHEMBL4507319 (2021)

How the values were obtained:
[1] = target: Alpha-1B adrenergic receptor (Homo sapiens) (UniProt P35368); details: Compound concentration 10.0 uM
[2] = target: Tyrosine-protein kinase BTK (Homo sapiens) (UniProt Q06187); details: Compound concentration 1000.0 nM
[3] = target: Ribosomal protein S6 kinase alpha-3 (Homo sapiens, UniProt P51812); details: Compound concentration 1000.0 nM
[4] = target: Serine/threonine-protein kinase 16 (Homo sapiens) (UniProt O75716); details: Compound concentration 1000.0 nM
Sequence of Serine/threonine-protein kinase 16 (Homo sapiens) (O75716 whole entry, the tested form may be a part): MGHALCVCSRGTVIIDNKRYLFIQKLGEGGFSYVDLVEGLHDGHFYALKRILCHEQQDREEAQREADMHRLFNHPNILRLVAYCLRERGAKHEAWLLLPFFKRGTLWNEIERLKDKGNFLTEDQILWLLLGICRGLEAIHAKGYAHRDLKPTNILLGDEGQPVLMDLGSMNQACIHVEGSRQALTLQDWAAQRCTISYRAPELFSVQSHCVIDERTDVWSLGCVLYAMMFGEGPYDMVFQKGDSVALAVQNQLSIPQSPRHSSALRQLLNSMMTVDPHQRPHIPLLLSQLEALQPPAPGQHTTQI

[5] = target: LIM domain kinase 2 (Homo sapiens) (UniProt P53671); details: Compound concentration 1000.0 nM
Sequence of LIM domain kinase 2 (Homo sapiens) (P53671 whole entry, looked up, the tested form may be a part): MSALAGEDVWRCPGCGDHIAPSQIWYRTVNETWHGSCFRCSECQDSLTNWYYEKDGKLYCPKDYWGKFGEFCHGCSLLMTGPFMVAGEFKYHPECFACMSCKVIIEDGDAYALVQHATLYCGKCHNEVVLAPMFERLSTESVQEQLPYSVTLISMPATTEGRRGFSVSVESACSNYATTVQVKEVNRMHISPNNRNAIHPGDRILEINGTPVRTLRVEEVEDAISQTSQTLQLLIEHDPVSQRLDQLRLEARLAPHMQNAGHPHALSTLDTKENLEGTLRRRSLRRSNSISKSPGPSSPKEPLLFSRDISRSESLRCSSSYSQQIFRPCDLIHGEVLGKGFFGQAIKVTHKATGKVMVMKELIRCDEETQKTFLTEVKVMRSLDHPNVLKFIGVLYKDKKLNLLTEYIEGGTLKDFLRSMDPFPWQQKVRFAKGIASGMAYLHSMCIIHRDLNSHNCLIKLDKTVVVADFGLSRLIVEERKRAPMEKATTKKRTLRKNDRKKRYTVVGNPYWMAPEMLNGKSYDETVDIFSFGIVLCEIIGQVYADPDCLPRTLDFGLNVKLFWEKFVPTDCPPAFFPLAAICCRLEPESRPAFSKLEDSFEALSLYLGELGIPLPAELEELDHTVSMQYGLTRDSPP

[6] = target: Mitogen-activated protein kinase kinase kinase 1 (Homo sapiens) (UniProt Q13233); details: Compound concentration 1000.0 nM
Sequence of Mitogen-activated protein kinase kinase kinase 1 (Homo sapiens) (Q13233 whole entry): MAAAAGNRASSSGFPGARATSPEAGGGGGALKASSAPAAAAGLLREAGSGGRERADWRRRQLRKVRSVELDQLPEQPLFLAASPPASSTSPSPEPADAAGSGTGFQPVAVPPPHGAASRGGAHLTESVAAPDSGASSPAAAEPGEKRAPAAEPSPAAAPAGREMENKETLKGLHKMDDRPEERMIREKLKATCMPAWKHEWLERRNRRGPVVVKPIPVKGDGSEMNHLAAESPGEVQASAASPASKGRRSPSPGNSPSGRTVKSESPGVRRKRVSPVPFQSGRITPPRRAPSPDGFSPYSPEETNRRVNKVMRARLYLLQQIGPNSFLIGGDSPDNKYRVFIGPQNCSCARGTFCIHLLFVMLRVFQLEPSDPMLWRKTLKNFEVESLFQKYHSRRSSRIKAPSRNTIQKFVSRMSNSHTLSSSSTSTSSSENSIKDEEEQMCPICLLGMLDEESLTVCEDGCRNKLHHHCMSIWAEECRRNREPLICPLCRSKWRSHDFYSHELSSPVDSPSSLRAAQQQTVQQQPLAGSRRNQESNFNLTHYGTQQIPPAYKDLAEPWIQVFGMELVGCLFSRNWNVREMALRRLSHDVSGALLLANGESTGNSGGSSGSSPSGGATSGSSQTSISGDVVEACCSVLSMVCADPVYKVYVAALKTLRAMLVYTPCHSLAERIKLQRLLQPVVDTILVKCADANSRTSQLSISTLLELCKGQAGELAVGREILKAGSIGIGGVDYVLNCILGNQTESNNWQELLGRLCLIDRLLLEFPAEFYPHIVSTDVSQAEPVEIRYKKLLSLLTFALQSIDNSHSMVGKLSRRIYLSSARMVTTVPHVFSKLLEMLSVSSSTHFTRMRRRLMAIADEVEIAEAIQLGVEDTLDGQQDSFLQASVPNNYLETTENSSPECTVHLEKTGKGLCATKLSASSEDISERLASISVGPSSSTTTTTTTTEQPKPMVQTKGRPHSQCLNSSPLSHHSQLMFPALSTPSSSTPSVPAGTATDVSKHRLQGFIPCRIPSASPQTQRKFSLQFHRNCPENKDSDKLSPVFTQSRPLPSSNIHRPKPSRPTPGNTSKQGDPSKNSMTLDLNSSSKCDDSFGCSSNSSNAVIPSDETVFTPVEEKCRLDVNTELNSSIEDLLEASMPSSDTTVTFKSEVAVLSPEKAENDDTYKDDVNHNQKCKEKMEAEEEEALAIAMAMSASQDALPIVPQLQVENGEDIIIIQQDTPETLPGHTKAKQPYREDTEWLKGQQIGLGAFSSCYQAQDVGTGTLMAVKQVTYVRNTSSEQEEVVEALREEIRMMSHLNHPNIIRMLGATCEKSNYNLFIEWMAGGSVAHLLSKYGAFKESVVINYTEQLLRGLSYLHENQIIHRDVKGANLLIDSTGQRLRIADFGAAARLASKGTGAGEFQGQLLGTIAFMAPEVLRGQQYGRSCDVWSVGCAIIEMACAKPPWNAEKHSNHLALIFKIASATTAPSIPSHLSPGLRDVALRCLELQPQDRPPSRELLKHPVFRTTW

[7] = target: T1, Serine/threonine-protein kinase TBK1 (Homo sapiens) (UniProt Q9UHD2); details: Compound concentration 1000.0 nM
T1 sequence (whole entry): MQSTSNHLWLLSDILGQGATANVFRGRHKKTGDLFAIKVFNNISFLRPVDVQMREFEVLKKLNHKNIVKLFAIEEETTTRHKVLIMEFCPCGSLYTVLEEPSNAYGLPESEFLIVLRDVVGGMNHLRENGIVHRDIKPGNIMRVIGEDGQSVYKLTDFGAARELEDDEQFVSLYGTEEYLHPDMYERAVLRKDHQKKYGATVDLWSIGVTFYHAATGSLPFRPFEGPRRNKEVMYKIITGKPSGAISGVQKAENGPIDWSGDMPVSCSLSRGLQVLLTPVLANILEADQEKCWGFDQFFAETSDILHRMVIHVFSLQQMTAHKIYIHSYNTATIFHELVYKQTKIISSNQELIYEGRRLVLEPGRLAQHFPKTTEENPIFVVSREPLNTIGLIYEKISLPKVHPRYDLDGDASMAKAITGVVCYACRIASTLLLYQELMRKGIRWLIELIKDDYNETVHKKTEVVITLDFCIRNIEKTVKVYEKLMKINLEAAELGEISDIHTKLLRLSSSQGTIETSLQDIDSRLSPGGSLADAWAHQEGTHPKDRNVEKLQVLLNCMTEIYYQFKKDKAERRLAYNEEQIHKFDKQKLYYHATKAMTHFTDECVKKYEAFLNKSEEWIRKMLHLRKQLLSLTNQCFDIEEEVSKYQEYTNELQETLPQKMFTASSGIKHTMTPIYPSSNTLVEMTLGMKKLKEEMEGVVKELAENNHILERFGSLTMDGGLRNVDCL

[8] = target: Kappa-type opioid receptor (Homo sapiens) (UniProt P41145); details: Compound concentration 10.0 uM
[9] = target: Dual serine/threonine and tyrosine protein kinase (Homo sapiens) (UniProt Q6XUX3); details: Compound concentration 1000.0 nM
Sequence of Dual serine/threonine and tyrosine protein kinase (Homo sapiens) (Q6XUX3 whole entry): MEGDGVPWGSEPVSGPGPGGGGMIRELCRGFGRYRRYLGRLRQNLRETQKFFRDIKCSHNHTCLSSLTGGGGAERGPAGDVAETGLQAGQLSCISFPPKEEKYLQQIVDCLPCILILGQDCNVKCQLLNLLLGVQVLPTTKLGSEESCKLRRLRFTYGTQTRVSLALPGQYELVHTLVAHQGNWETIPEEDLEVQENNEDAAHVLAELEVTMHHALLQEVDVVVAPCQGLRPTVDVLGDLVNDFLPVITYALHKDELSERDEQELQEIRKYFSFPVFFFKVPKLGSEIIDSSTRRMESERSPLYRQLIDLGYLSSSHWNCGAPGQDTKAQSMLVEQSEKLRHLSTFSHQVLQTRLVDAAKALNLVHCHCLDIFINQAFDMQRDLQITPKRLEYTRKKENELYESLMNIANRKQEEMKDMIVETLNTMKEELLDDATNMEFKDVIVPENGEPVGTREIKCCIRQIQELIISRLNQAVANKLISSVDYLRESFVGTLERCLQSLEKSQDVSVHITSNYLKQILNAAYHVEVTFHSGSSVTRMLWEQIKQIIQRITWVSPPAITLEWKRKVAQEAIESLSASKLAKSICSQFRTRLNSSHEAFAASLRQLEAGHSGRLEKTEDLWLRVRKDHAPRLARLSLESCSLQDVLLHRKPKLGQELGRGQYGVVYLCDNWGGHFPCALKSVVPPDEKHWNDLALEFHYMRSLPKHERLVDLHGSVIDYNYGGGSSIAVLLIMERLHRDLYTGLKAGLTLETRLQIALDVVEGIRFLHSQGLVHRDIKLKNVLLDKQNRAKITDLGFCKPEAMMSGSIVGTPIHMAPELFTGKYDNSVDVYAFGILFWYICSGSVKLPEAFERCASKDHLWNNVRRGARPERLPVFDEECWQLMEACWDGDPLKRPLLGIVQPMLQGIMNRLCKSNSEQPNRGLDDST

[10] = target: Proto-oncogene tyrosine-protein kinase Src (Homo sapiens) (UniProt P12931); details: Compound concentration 1000.0 nM
[11] = target: SRSF protein kinase 3 (Homo sapiens) (UniProt Q9UPE1); details: Compound concentration 1000.0 nM
[12] = test system: Tyrosine-protein kinase ABL1 (Homo sapiens), P00519 [F317I]; details: Compound concentration 1000.0 nM
Sequence of Tyrosine-protein kinase ABL1 (Homo sapiens), P00519 [F317I] (P00519 whole entry F317I): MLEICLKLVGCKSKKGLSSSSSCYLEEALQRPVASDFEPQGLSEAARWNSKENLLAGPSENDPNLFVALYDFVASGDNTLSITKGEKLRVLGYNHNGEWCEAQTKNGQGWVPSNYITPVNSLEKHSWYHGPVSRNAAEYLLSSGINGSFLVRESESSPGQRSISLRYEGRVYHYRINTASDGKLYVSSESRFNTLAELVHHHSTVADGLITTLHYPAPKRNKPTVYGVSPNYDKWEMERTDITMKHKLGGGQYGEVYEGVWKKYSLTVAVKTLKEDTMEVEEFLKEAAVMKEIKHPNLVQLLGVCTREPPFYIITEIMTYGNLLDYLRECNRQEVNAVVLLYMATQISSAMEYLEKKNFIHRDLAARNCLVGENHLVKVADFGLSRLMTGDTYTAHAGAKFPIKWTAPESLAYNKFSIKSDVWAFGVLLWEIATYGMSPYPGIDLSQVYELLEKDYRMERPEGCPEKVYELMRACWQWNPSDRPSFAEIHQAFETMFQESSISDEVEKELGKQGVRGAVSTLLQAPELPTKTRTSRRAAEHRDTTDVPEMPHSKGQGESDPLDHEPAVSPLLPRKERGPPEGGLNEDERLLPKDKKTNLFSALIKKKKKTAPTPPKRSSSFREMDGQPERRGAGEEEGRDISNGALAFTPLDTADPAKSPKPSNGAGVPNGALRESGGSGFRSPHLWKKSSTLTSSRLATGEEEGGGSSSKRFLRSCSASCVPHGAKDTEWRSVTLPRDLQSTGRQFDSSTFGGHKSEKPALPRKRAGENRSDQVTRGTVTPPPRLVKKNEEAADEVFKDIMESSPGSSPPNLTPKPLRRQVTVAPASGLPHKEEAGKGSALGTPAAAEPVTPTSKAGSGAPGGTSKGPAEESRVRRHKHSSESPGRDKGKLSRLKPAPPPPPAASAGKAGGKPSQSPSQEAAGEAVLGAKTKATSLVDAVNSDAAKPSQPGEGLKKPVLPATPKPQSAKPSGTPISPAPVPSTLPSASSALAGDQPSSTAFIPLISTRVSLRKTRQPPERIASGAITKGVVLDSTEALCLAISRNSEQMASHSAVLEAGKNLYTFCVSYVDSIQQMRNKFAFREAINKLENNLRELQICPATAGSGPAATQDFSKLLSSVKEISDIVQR

[13] = target: Calcium/calmodulin-dependent protein kinase type II subunit gamma (Homo sapiens) (UniProt Q13555); details: Compound concentration 1000.0 nM
[14] = target: T2, Mitogen-activated protein kinase kinase kinase 2 (Homo sapiens) (UniProt Q9Y2U5); details: Compound concentration 1000.0 nM
T2 sequence (whole entry): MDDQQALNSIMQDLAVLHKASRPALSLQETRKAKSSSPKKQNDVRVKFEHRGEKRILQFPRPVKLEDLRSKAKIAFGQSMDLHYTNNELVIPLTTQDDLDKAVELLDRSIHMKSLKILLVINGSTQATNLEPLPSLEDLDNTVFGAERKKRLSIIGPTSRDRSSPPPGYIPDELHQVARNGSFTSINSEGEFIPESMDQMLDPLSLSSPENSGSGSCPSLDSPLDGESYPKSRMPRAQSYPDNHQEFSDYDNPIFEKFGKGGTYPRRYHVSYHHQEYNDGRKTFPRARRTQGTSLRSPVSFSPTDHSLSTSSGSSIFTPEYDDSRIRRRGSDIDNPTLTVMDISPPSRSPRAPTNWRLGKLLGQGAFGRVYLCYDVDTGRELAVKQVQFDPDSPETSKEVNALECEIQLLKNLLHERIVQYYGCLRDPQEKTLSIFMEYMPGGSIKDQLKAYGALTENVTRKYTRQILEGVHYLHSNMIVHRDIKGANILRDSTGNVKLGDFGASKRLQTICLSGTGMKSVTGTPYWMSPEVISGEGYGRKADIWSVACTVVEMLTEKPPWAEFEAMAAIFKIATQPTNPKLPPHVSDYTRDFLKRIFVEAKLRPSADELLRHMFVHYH

[15] = target: Dual specificity protein kinase CLK4 (Homo sapiens) (UniProt Q9HAZ1); details: Compound concentration 1000.0 nM
Sequence of Dual specificity protein kinase CLK4 (Homo sapiens) (Q9HAZ1 whole entry, looked up): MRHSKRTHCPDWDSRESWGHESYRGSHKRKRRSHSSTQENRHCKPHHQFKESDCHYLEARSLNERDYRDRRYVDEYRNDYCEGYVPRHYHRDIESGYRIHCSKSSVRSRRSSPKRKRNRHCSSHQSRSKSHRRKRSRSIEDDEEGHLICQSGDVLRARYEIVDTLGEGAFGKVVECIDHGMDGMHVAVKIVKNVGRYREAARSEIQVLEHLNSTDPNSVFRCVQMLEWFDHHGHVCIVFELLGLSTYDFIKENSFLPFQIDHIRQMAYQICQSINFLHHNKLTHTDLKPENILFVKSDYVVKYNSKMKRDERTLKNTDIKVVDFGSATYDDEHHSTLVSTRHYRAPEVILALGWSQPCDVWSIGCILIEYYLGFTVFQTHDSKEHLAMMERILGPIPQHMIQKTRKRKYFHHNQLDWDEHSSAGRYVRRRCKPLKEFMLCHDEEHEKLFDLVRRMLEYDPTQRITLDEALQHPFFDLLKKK

[16] = target: Membrane-associated tyrosine- and threonine-specific cdc2-inhibitory kinase (Homo sapiens) (UniProt Q99640); details: Compound concentration 1000.0 nM
[17] = target: Cyclin-dependent kinase 15 (Homo sapiens) (UniProt Q96Q40); details: Compound concentration 1000.0 nM
[18] = target: T3, Activin receptor type-1B (Homo sapiens) (UniProt P36896); details: Compound concentration 1000.0 nM
T3 sequence (whole entry): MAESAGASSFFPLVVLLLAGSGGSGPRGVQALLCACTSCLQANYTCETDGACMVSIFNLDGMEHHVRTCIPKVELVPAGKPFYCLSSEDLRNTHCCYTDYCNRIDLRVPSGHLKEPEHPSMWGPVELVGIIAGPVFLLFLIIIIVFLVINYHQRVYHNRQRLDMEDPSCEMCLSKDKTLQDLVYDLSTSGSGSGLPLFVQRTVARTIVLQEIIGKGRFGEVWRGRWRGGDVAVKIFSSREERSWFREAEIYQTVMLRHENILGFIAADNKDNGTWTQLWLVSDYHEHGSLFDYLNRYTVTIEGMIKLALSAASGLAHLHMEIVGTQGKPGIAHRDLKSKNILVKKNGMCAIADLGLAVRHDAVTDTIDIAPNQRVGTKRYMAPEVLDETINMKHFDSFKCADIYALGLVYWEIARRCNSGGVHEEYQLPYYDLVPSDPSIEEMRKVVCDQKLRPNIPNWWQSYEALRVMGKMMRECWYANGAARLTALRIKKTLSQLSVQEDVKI

[19] = target: Interferon-induced, double-stranded RNA-activated protein kinase (Homo sapiens) (UniProt P19525); details: Compound concentration 1000.0 nM
[20] = target: 3-phosphoinositide-dependent protein kinase 1 (Homo sapiens) (UniProt O15530); details: Compound concentration 1000.0 nM

CCc1ccccc1C(=O)Nc1n[nH]c2c(C)c(F)c(C3C(C#N)=C(C)N(C)C(C)=C3C#N)cc12 [BAY-3827]
inactive: inhibition [1] -9.38% | residual activity [2] 99% | residual activity [3] 100% | residual activity [4] 79% | residual activity [5] 99% | residual activity [6] 100% | residual activity [7] 77% | inhibition [8] 16.1% | residual activity [9] 95% | residual activity [10] 94% | residual activity [11] 100% | residual activity [12] 100% | residual activity [13] 79% | residual activity [14] 100% | residual activity [15] 100% | residual activity [16] 100% | residual activity [17] 95% | residual activity [18] 100% | residual activity [19] 100% | residual activity [20] 86%

CC1=C(C#N)C(c2ccc3c(c2)c(NC(=O)c2ccccc2C)nn3C)C(C#N)=C(C)N1 [BAY-974]
inactive: inhibition [1] -4.61% | residual activity [2] 85% | residual activity [3] 94% | residual activity [4] 83% | residual activity [5] 99% | residual activity [6] 51% | residual activity [7] 69% | inhibition [8] 21.6% | residual activity [9] 72% | residual activity [10] 89% | residual activity [11] 100% | residual activity [12] 100% | residual activity [13] 100% | residual activity [14] 100% | residual activity [15] 76% | residual activity [16] 99% | residual activity [17] 100% | residual activity [18] 80% | residual activity [19] 100% | residual activity [20] 77%
